Assay results published in US20220023269A1, “Methods Of Treating Diabetes In Severe Insulin-Resistant Diabetic Subjects” (Balticgruppen Bio AB, priority 2018, published 2022).

How the values were obtained:
[1] = system: AMPK in human skeletal myotubes; test: AMPK activation assay in human skeletal myotubes; type: cell-based; conditions: cells preferentially expressing β2 subunit
Protocol: (§1) All cell lines were lysed in 0.1 M Tris-HCl, pH 6.8, 2% SDS, 10 mM sodium fluoride (SIGMA #S7920), 10 mM β-glycerophosphate (SIGMA #G6376), and 1 mM sodium vanadate (SIGMA #72060) and supernatant collected after 1 minute at 14,000 rpm. Islets (human and mouse) were lysed in 0.1 M Tris-HCl, pH 6.8, 2% SDS, protease inhibitor (Roche #04 693 124 001) and phosphatase inhibitor (Roche #04 906 837 001). Right calf muscle, heart, iWAT, and interscapular BAT was crushed in a pestle using liquid nitrogen and homogenised in ice cold RIPA buffer (150 mM sodium chloride (SIGMA #S7653), 1.0% NP40 (USB), 0.5% sodium deoxycholate (SIGMA #D6750), 0.1% SDS, 50 mM Tris pH 8.0, 20 mM sodium pyrophosphate (SIGMA #71515), 10 mM sodium fluoride, 10 mM β-glycerolphosphate, 1 mM sodium vanadate and protease inhibitor cocktail (Roche #04693124001), 1 tablet/10 ml lysis buffer). The supernatant was collected after 2 min at 14,000 rpm. This procedure was repeated until all fat was eliminated and the supernatant was clear, at 4° C. Samples were analysed on 4-15% polyacrylamide gels. Values were normalised toward AMPKα, β-Actin, GAPDH or the respective non-phosphorylated counterpart.
(§2) Table 3 contains origin of cell lines, growth conditions and settings for activation of AMPK via the test material. […]

[2] = system: AMPK in human hepatocytes; test: AMPK activation assay in human hepatocytes; type: cell-based; conditions: cells preferentially expressing β2 subunit
Protocol: as §1, §2

[3] = system: hIAPPtg DIO mice; test: Prevention of diabetes in hIAPPtg DIO mice (oral gavage, 6 w); type: in vivo; conditions: 100 mg/kg/day gavage, 6 w HFD
[4] = system: AMPK in human islets; test: AMPK activation in human islets; type: cell-based; conditions: 1.0, 2.5, 5.0, 10 μM, 4 hours
Protocol: as §1, §2

[5] = system: primary mouse islets; test: Unfolded protein response gene expression in islets at 22 mM glucose; type: cell-based
Protocol: For RNA purification calf muscle, iWAT, interscapular BAT, and left lateral liver lobe was crushed in a pestle using liquid nitrogen before turning to respective RNA kit. RNA from liver was prepared using Total RNA isolation Nucleospin II Kit (Macherey-Nagel #740955.50). RNA from adipose tissue was prepared using RNeasy Lipid Tissue Mini kit (Qiagen #74804). RNA from calf muscle tissue was prepared using RNeasy Fibrous Tissue Mini kit (Qiagen #74704). First strand cDNA synthesis was done using SuperScript III (First-Strand Synthesis SuperMix for qRT-PCR, Invitrogen #11752-250) according to the manufacturer's instructions. Total RNA was prepared from isolated islets using RNeasy Micro Kit (Qiagen #74004) and first strand cDNA synthesis was done using Superscript III (Invitrogen #18080-051) according to the manufacturer's instructions. Quantification of mRNA expression levels was performed essentially as previously described (Reference 3). Tyrosine 3-monooxygenase/tryptophan 5-monoxygenase activation protein, zeta polypeptide (YWHAS) was used to normalise expression levels except for islets where TBP was used.

[6] = system: DIO mice (B6CBAF1/J); test: Laser Doppler imaging of peripheral blood perfusion; type: in vivo; conditions: 40 mg/kg/day gavage, 8 w, vs vehicle
Protocol: 9 weeks old F1 mice were fed HFD for 8 weeks and treated with either vehicle or test material (40 mg/kg, orally once a day). Veet hair removal cream was used to remove hair from the left hind limb one day prior to blood perfusion analysis. Mice were anaesthetised using isoflurane and placed on a heating pad. Blood perfusion was scanned using a PeriScan PIM II Images and LDPIwin software (version 2.6.1) was used to analyse the images.

[7] = system: patients suffering from type-2 diabetes; test: Renal hemodynamics / glomerular perfusion in humans; type: in vivo, human

SMILES: O=C(Nc1nc(=O)n(Cc2ccc(Cl)cc2)s1)c1ccc(Cl)cc1 [test material, 4-chloro-N-[2-[(4-chlorophenyl)methyl]-3-oxo-1,2,4-thiadiazol-5-yl]benzamide]
- pAMPK [1]: increased pAMPK
- pAMPK [2]: increased pAMPK
- HOMA-IR and Matsuda index (systemic insulin resistance) [3]: suppressed the development of systemic insulin resistance
- i.p. and oral glucose-tolerance tests [3]: prevented the development of glucose intolerance and compensatory hyperinsulinemia
- 6 h fasted blood glucose ([3]; vs vehicle): averted the increase
- 6 h fasted plasma insulin levels ([3]; vs vehicle): averted the increase
- pAMPKα [4]: directly increased pAMPKα
- expression of unfolded protein response genes (ER stress) [5]: largely prevented an increased expression of unfolded protein response genes
- microvascular blood flow in hind legs [6]: significantly increased microvascular blood flow
- microvascular perfusion in glomeruli ([7]; humans): positive effect on microvascular perfusion in glomeruli
- renal hemodynamics ([7]; patients suffering from type-2 diabetes): positive effects on renal hemodynamics
